Experimental data published in patent US9975852B2, “Quinoline sulfonyl derivatives and uses thereof” (Health Sciences North Research Institute, priority 2013, dated 2018).
“Also recorded” adds a separate entry of the source.

Columns and labels:
[1] = system: MDA-MB231 human metastatic breast cancer cells; assay: Xenograft antitumor activity, ATH490 mice engrafted with MDA-MB231; assay type: in vivo
Description: Five-week-old female CD-1 and ATH490 (strain code 490) athymic nude mice were purchased from Charles River (Quebec, Canada). The MDA-MB231 human metastatic breast cancer cells were obtained from the American Tissue Culture Collection (ATCC, Manassas, Va., USA). Cells were maintained under humidified condition at 37° C. and 5% CO2 in DMEM high glucose medium (ATCC) supplemented with 10% fetal bovine serum and antibiotics. All animal experiments, including animal handling, care, treatment and endpoint determination, were reviewed and approved by the Laurentian University Animal Care Committee (ACC) and carried out at Laurentian University Animal Care facility (Sudbury, Ontario, Canada)
To determine anti-tumor activity of VR-23 in an animal model, a xenograft model of human breast cancer cells in athymic nude mice was established. Exponentially growing MDA-MB231 cells were harvested and counted for inoculation into mice. Each mouse was subcutaneously injected at the flank with 10×10^6 cells in 0.2 ml ice cold 1×PBS. When tumor size reached 4-5 mm in diameter (n=4-5 per group), mice were randomly assigned into five (or more) groups.

[2] = system: MCF7 cells; assay: Flow cytometry, apoptosis of MCF7 cells; assay type: cell-based, human; details: VR-23 2.7 or 8.0 μM, 48 hours
Description: Asynchronous MCF7 cells were incubated for 48 hours in the absence (Sham treated control) or presence of VR-23 at 2.7 or 8.0 μM. […] (Note the sub-G1 DNA profile that is typical for apoptotic cell death.) The profiles of flow cytometry are consistent with the cell images in the corresponding upper panels (FIG. 3).

[3] = system: 20S proteasome; assay: 20S proteasome activity in HeLa S3 cell lysates; assay type: biochemical; details: 1 μM VR-23
Description: (§1) Exponentially growing HeLa S3 cells were plated on 96-well plates. After overnight incubation, the cells were treated with different concentrations of drugs for 6 hours or left untreated (control). At the end of 6 hours, proteasomes were extracted in 0.5% NP40 buffer, and equal amounts of samples were incubated with 25 μM of fluorogenic substrates purchased from Boston Biochem (Cambridge Mass.). (LRR-specific for trypsin-like activity, LLE-specific for caspase-like activity and SUVY-specific for chymotrypsin like activity) in black-bottom 96-well plates at 37° C. Fluorescence was monitored every 5 min at the wavelength of 360 nm (excitation) and 480 nm (emission). Chymotrypsin activity was also determined by a kit-based method (similar to described above) purchased from Caymen Biochem (Ann Arbor, Mich.), using a fluorogenic substrate specific for chymotrypsin activity.
(§2) Analysis of proteasome activity in HeLa S3 cell lysates treated with various compounds (FIG. 10). VR-23 inhibits proteasome activity. 20S proteasome activity was inhibited by 1 μM VR-23. MG132 and EGCG, known proteasome inhibitors, were used as positive controls. The PC positive control is cell lysates prepared from Jurkat cells with a high proteasome activity. “Asynchr” denote asynchronous HeLa S3 cells grown in the absence of VR-23.

[4] = target: T1, Caspase-like proteasome activity in HeLa S3 cell lysates (Homo sapiens, UniProt P28072); assay: Proteasome activity assay, caspase-like; assay type: biochemical; details: read-out: Inhibition (IC50) Caspase-like
T1 construct: proteasomes were extracted in 0.5% NP40 buffer; endogenous in cells; host or cells: HeLa S3
Description: as §1, §2

[5] = system: U87MG; assay: SRB antiproliferative assay, U87MG; assay type: cell-based; details: Homo sapiens, U-87 MG
Description: Antiproliferative effects were determined by a sulforhodamine B (SRB) based protocol. For a typical screening experiment, 5,000-10,000 cells were inoculated into 100 μl medium per well of a 96-well microtiter plate as described previously. Briefly, after the inoculation, the microtiter plate was incubated at 37° C., 5% CO2, 95% air and 100% relative humidity for 24 h, prior to addition of experimental drugs. Some of the sample wells were fixed with 25 μl of 50% trichloroacetic acid (TCA) as a control of the cell population for each cell line at the time of drug addition (Tz). An aliquot of the frozen stock was thawed and diluted to the desired final maximum test-concentration with complete medium. […] The cells “stained” with SRB were solubilized with 10 mM trizma base, and the absorbance was read on an automated plate reader at a wavelength of 515-564 nm. The relative growth rate (%) was calculated for each of the compound concentrations according to the following formula: (Ti−Tz)/(C−Tz)×100 In the formula, time zero (Tz), control growth (C), and OD for different concentration of tested compounds (Ti). […] Values were calculated for each of these parameters if the level of activity was reached. However, if the effect was not reached or was exceeded, the value for that parameter was expressed as greater or less than the maximum or minimum concentration tested. […]

## O=[N+]([O-])c1ccc(S(=O)(=O)N2CCN(c3ccnc4cc(Cl)ccc34)CC2)c([N+](=O)[O-])c1 [Compound 1, 7-Chloro-4-(4-(2,4-dinitrophenylsulfonyl)piperazin-1-yl)quinoline]
[1]; VR-23 30 mg/kg twice per week i.p., three weeks
  Decrease of tumor size compared to sham-treated control: 4.6 fold
[1]; day 0, dosing as in Table IX B
  Tumor size D0: 46.51 ± 2.82
[1]; day 7 post-treatment, dosing as in Table IX B
  Tumor size D7: 52.74 ± 5.64
[1]; day 15 post-treatment, dosing as in Table IX B
  Tumor size D15: 48.29 ± 17.30
[1]; day 18 post-treatment, dosing as in Table IX B
  Tumor size D18: 42.41 ± 17.95
[1]; day 22 post-treatment, dosing as in Table IX B
  Tumor size D22: 65.88 ± 25.92
[1]; four weeks treatment
  VEGF immunostaining of tumor: did not show any notable amount of VEGF
[1]; four weeks treatment, H & E
  Angiogenesis and spread of tumor cells: inhibited angiogenesis and the spread of tumor cells to surrounding tissue/organs
[1]; tumor samples 15 and 29 days post-treatment
  Tumor cell proliferation (Ki-67, mitotic index): inhibited tumor cell proliferation
[2]
  Apoptosis (sub-G1 DNA profile): caused apoptosis
[3]
  20S proteasome activity: inhibited; also recorded: almost completely inhibits
[4]
  IC50: 3000 nM
[5]
  IC50: 800 ± 100 nM
